Literature values, collected in patent publication US9789078B2, “Method of topically treating actinic keratosis with ingenol mebutate cycle therapy” (LEO Laboratories Limited, priority 2012, dated 2017).
Like-named read-outs stand apart in the source and are kept apart here.

Conditions: first treatment cycle, cited from earlier work

For `C/C=C(/C)C(=O)O[C@H]1C(C)=C[C@]23C(=O)[C@@H](C=C(CO)[C@@H](O)[C@]12O)[C@H]1[C@@H](C[C@H]3C)C1(C)C` [ingenol mebutate], the “time to resolution of local adverse events without sequelae” value (topical application to the face or scalp) is given as ≤ 2 weeks and the “time to resolution of local adverse events without sequelae” value (topical application to the trunk or extremities) is given as ≤ 4 weeks.
